Experiment [1] deals with T1, Oxytocin receptor (Rattus norvegicus) (UniProt P70536).
T1 sequence (whole entry): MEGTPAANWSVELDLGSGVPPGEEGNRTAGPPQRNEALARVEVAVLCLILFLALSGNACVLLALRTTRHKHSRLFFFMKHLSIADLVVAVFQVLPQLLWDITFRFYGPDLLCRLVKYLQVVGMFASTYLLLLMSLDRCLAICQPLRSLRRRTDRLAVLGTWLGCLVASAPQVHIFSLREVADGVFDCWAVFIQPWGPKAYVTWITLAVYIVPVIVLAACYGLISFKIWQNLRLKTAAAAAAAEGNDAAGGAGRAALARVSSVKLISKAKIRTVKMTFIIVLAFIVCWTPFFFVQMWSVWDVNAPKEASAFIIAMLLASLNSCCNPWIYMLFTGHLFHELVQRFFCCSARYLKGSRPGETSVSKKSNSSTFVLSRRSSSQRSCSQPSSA
Put plainly: Agonist activity in rat uterus by uterotonic assay. In kind it is functional, tissue-based.

Experiment [2] has as its target Vasopressin V1a receptor (Rattus norvegicus) (UniProt P30560). Description: Agonist activity in phenoxybenzamine-treated rat up to 0.16 mg/kg by Pressor assay.
The target of experiment [3] is T2, Oxytocin receptor (Homo sapiens, UniProt P30559).
T2 sequence (P30559 whole entry): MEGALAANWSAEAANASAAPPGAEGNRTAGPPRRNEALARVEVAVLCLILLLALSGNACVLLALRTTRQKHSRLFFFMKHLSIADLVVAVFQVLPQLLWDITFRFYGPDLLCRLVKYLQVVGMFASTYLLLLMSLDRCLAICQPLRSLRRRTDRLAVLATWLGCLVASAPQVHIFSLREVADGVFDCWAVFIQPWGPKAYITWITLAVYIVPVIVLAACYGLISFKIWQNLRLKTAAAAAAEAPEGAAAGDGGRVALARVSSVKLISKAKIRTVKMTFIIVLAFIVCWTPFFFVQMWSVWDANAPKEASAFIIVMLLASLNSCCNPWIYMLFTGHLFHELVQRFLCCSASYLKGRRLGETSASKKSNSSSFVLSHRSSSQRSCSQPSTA
Description: Displacement of [3H]OT from human OT receptor expressed in HEK cells. In kind it is cell-based, HEK293. Background: In a radioligand displacement assay an active substance lowers the binding of a labelled ligand.

Experiment [4] deals with Vasopressin V1a receptor (Rattus norvegicus) (UniProt P30560). Put plainly: Antagonist activity in phenoxybenzamine-treated rat by Pressor assay. Conditions: read-out: pA2 (converted).
Experiment [5] concerns the target T3, Oxytocin receptor (Rattus norvegicus, UniProt P70536).
T3 sequence (P70536 whole entry): T1 sequence (whole entry)
Put plainly: Antagonist activity in rat uterus by uterotonic assay. Format: functional, tissue-based. The note with it: read-out: pA2 (converted).

From ChEMBL document CHEMBL1147207 (Eur J Med Chem, 2007) come the findings set out here.

The source made the active and inactive calls. The rule behind the calls is not given here. Bridge positions count the residues as written; N and C are the ends. Square brackets hold non-standard residues; d marks the D form. Peptide text beside a SMILES is read from it. Orn = NCCC[C@H](N)C(=O)O; Aib = CC(C)(N)C(=O)O; Mpa = O=C(O)CCS

Sequence of Vasopressin V1a receptor (Rattus norvegicus) (P30560 whole entry, looked up): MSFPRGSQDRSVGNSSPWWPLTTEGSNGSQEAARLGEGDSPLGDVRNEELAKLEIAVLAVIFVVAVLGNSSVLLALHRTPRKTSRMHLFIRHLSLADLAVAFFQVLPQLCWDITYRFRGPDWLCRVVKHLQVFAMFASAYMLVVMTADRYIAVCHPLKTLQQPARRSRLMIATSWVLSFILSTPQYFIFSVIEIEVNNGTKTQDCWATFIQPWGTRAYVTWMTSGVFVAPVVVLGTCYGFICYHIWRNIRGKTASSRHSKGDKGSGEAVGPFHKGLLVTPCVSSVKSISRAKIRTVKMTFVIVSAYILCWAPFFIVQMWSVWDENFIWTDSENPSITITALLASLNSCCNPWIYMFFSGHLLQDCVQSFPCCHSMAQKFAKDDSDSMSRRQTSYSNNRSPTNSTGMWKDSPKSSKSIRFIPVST

What is called IC50 is the midpoint of a concentration-inhibition curve. Low values mean higher potency, high ones lower potency. For `CC[C@H](C)[C@@H]1NC(=O)[C@H](Cc2ccc(O)cc2)NC(=O)[C@@H](N)CSSC[C@@H](C(=O)N2CCCC[C@H]2C(=O)N[C@@H](CC(C)C)C(=O)NCC(N)=O)NC(=O)[C@H](CC(N)=O)NC(=O)[C@H](CCC(N)=O)NC1=O`, the Activity in experiment [1] was 79.8 IU/mg. Further, the result in experiment [2] was inactive. The IC50 in experiment [3] worked out at 7 nM.
For `CCc1ccc(C[C@H]2NC(=O)CCSSC[C@@H](C(=O)NC(C)(C)C(=O)N[C@@H](CC(C)C)C(=O)NCC(N)=O)NC(=O)[C@H](CC(N)=O)NC(=O)[C@H](CCC(N)=O)NC(=O)[C@H]([C@@H](C)CC)NC2=O)cc1`, the Activity in experiment [1] was 0 IU/mg. In experiment [2], the outcome was inactive. For the same molecule, the Kb in experiment [4] is 316 nM; in experiment [5], 5.01 nM.
As to `CCOc1ccc(CC2NC(=O)CCSSC[C@@H](C(=O)NC(C)(C)C(=O)N[C@@H](CC(C)C)C(=O)N3CCCC[C@@H]3C(N)=O)NC(=O)[C@H](CC(N)=O)NC(=O)[C@H](CCC(N)=O)NC(=O)[C@H]([C@@H](C)CC)NC2=O)cc1` (stereo in doubt), the Activity in experiment [1] is 0 IU/mg. The outcome in experiment [2] was inactive.
In experiment [3], `CC(C)C[C@H](NC(=O)[C@@H](NC(=O)[C@@H]1CSSC[C@H](N)C(=O)N[C@@H](Cc2ccc(O)cc2)C(=O)N[C@@H](C(C)(C)C)C(=O)N[C@@H](CCC(N)=O)C(=O)N[C@@H](CC(N)=O)C(=O)N1)C(C)(C)C)C(=O)NCC(N)=O` displayed an IC50 of 51700 nM. For the same molecule, the Kb in experiment [5] is 741 nM.
In experiment [1], `CC[C@H](C)[C@@H]1NC(=O)[C@H](Cc2ccc(O)cc2)NC(=O)[C@@H](N)CSSC[C@@H](C(=O)N[C@@H](C(=O)N[C@@H](CC(C)C)C(=O)NCC(N)=O)C(C)(C)C)NC(=O)[C@H](CC(N)=O)NC(=O)[C@H](CCC(N)=O)NC1=O` had an Activity of 1.8 IU/mg. Also, the result in experiment [2] was inactive.
On to `CCOc1ccc(C[C@H]2NC(=O)[C@@H](N)CSSC[C@@H](C(=O)N3CCC[C@H]3C(=O)N[C@@H](CC(C)C)C(=O)NCC(N)=O)NC(=O)[C@H](CC(N)=O)NC(=O)[C@H](CCC(N)=O)NC(=O)[C@H]([C@@H](C)CC)NC2=O)cc1`, for which the Activity in experiment [1] came out at 0 IU/mg. Besides, the Kb in experiment [5] is 43.7 nM.
In turn, `CC[C@H](C)[C@@H]1NC(=O)[C@H](Cc2ccc(O)cc2)NC(=O)[C@@H](N)CSSC[C@@H](C(=O)NC(C)(C)C(=O)N[C@@H](CC(C)C)C(=O)NCC(N)=O)NC(=O)[C@H](CC(N)=O)NC(=O)[C@H](CCC(N)=O)NC1=O` (H-CYIQNC[Aib]LG-NH2; disulfide 1-6) displayed an Activity in experiment [1] of 1.7 IU/mg. In addition, the outcome in experiment [2] was inactive. The IC50 in experiment [3] was determined as 75 nM.
For the molecule `CC[C@H](C)[C@@H]1NC(=O)[C@H](Cc2ccc(O)cc2)NC(=O)CCSSC[C@@H](C(=O)N2Cc3ccccc3C[C@@H]2C(=O)N[C@@H](CC(C)C)C(=O)NCC(N)=O)NC(=O)[C@H](CC(N)=O)NC(=O)[C@H](CCC(N)=O)NC1=O`, the Activity in experiment [1] is 1 IU/mg. Also, in experiment [2], the outcome was inactive. For the same molecule, the IC50 in experiment [3] is 380 nM. Also, in experiment [5], the Kb was 10 nM.
Take `CC[C@H](C)[C@@H]1NC(=O)[C@H](Cc2ccc(O)cc2)NC(=O)[C@@H](N)CSSC[C@@H](C(=O)N2CCC[C@H]2C(=O)N[C@@H](CC(C)C)C(=O)NCC(N)=O)NC(=O)[C@H](CC(N)=O)NC(=O)[C@H](CCC(N)=O)NC1=O`: the Activity in experiment [1] turned out to be 546 IU/mg.
In turn, `CCOc1ccc(C[C@H]2NC(=O)CCSSC[C@@H](C(=O)N3CCC[C@H]3C(=O)N[C@@H](CCCN)C(=O)NCC(N)=O)NC(=O)[C@H](CC(N)=O)NC(=O)[C@H]([C@@H](C)O)NC(=O)[C@H]([C@@H](C)CC)NC2=O)cc1` [ATOSIBAN] ([Mpa][dY](Et)ITNCP[Orn]G-NH2; disulfide 1-6) came in with an Activity in experiment [1] of 0 IU/mg. The Kb in experiment [5] was 5.13 nM.
For `CC[C@H](C)[C@@H]1NC(=O)[C@H](Cc2ccc(O)cc2)NC(=O)[C@@H](N)CSSC[C@@H](C(=O)N[C@H](C(=O)N[C@@H](CC(C)C)C(=O)NCC(N)=O)C(C)(C)C)NC(=O)[C@H](CC(N)=O)NC(=O)[C@H](CCC(N)=O)NC1=O`, the IC50 in experiment [3] worked out at 1380 nM.
In experiment [1], `CC[C@H](C)[C@@H]1NC(=O)[C@H]2Cc3ccccc3CN2C(=O)CCSSC[C@@H](C(=O)NC(C)(C)C(=O)N[C@@H](CC(C)C)C(=O)NCC(N)=O)NC(=O)[C@H](CC(N)=O)NC(=O)[C@H](CCC(N)=O)NC1=O` had an Activity of 0 IU/mg. Moreover, in experiment [2], the result was inactive. Besides, the IC50 in experiment [3] amounted to 8500 nM. Further, the Kb in experiment [5] was 123 nM.
In the same order, the values of `CCOc1ccc(CC2NC(=O)CCSSC[C@@H](C(=O)NC(C)(C)C(=O)N[C@@H](CC(C)C)C(=O)NCC(N)=O)NC(=O)[C@H](CC(N)=O)NC(=O)[C@H](CCC(N)=O)NC(=O)[C@H]([C@@H](C)CC)NC2=O)cc1` (stereo in doubt) are 0 IU/mg, “inactive”, 485 nM and 17.8 nM.
On the same counts, the results for `CCOc1ccc(CC2NC(=O)CCSSC[C@@H](C(=O)N3Cc4ccccc4C[C@@H]3C(=O)N[C@@H](CC(C)C)C(=O)NC(C)(C)C(N)=O)NC(=O)[C@H](CC(N)=O)NC(=O)[C@H](CCC(N)=O)NC(=O)[C@H]([C@@H](C)CC)NC2=O)cc1` (stereo in doubt) are 0 IU/mg, “inactive”, 80 nM and 4.9 nM.
Molecule `CCOc1ccc(CC2NC(=O)CCSSC[C@@H](C(=O)N[C@H](C(=O)N[C@@H](CC(C)C)C(=O)NCC(N)=O)C(C)(C)C)NC(=O)[C@H](CC(N)=O)NC(=O)[C@H](CCC(N)=O)NC(=O)[C@H](C(C)(C)C)NC2=O)cc1` (stereo in doubt) returned an Activity in experiment [1] of 0 IU/mg. For the same molecule, the outcome in experiment [2] was inactive. Besides, the IC50 in experiment [3] came out at 7850 nM. Besides, in experiment [5], the Kb is 355 nM.
For the molecule `CCc1ccc(C[C@@H]2NC(=O)CCSSC[C@@H](C(=O)NC(C)(C)C(=O)N[C@@H](CC(C)C)C(=O)NCC(N)=O)NC(=O)[C@H](CC(N)=O)NC(=O)[C@H](CCC(N)=O)NC(=O)[C@H]([C@@H](C)CC)NC2=O)cc1`, the Activity in experiment [1] was determined as 0 IU/mg. Besides, the result in experiment [2] was inactive. Further, the Kb in experiment [5] was 39.8 nM.
In turn, `CC(C)C[C@H](NC(=O)[C@H](NC(=O)[C@@H]1CSSC[C@H](N)C(=O)N[C@@H](Cc2ccc(O)cc2)C(=O)N[C@@H](C(C)(C)C)C(=O)N[C@@H](CCC(N)=O)C(=O)N[C@@H](CC(N)=O)C(=O)N1)C(C)(C)C)C(=O)NCC(N)=O` had an Activity in experiment [1] of 0 IU/mg. Moreover, the outcome in experiment [2] was inactive.
Regarding `CC[C@H](C)[C@@H]1NC(=O)[C@H](Cc2ccc(O)cc2)NC(=O)CCSSC[C@H](C(=O)N2CCC[C@H]2C(=O)N[C@@H](CC(C)C)C(=O)NCC(N)=O)NC(=O)[C@H](CC(N)=O)NC(=O)[C@H](CCC(N)=O)NC1=O`, in experiment [1], the Activity is 803 IU/mg.
For the molecule `CCOc1ccc(CC2NC(=O)CCSSC[C@@H](C(=O)N[C@H](C(=O)N[C@@H](CC(C)C)C(=O)NCC(N)=O)C(C)(C)C)NC(=O)[C@H](CC(N)=O)NC(=O)[C@H](CCC(N)=O)NC(=O)[C@H]([C@@H](C)CC)NC2=O)cc1` (stereo in doubt), in experiment [1], the Activity amounted to 0 IU/mg. Also, the outcome in experiment [2] was inactive. The IC50 in experiment [3] came out at 1000 nM. Further, the Kb in experiment [5] was 11.7 nM.
Turning to `CCc1ccc(C[C@H]2NC(=O)CCSSC[C@@H](C(=O)N3CCC[C@H]3C(=O)N[C@@H](CC(C)C)C(=O)NCC(N)=O)NC(=O)[C@H](CC(N)=O)NC(=O)[C@H](CCC(N)=O)NC(=O)[C@H]([C@@H](C)CC)NC2=O)cc1`, the Kb in experiment [4] is 151 nM.
`CCOc1ccc(C[C@H]2NC(=O)CCSSC[C@@H](C(=O)NC(C)(C)C(=O)N[C@@H](CC(C)C)C(=O)N3Cc4ccccc4C[C@@H]3C(N)=O)NC(=O)[C@H](CC(N)=O)NC(=O)[C@H](CCC(N)=O)NC(=O)[C@H]([C@@H](C)CC)NC2=O)cc1`: the IC50 in experiment [3] stood at 55 nM. Also, the Kb in experiment [5] is 13.5 nM.
For the molecule `CCOc1ccc(CC2NC(=O)CCSSC[C@@H](C(=O)N3CCCC[C@H]3C(=O)N[C@@H](CC(C)C)C(=O)NCC(N)=O)NC(=O)[C@H](CC(N)=O)NC(=O)[C@H](CCC(N)=O)NC(=O)[C@H]([C@@H](C)CC)NC2=O)cc1` (stereo in doubt), the Activity in experiment [1] was found to be 0 IU/mg. Moreover, the outcome in experiment [2] was inactive. In addition, in experiment [3], the IC50 is 40 nM. Further, the Kb in experiment [5] is 12.6 nM.
In the same order, the values of `CCOc1ccc(CC2NC(=O)CCSSC[C@@H](C(=O)N3Cc4ccccc4C[C@@H]3C(=O)N[C@@H](CC(C)C)C(=O)N3Cc4ccccc4C[C@@H]3C(N)=O)NC(=O)[C@H](CC(N)=O)NC(=O)[C@H](CCC(N)=O)NC(=O)[C@H]([C@@H](C)CC)NC2=O)cc1` (stereo in doubt) are 0 IU/mg, “inactive”, 25 nM and 8.51 nM.
